Test results as given in ChEMBL document CHEMBL5096162, “A review on ferulic acid and analogs based scaffolds for the management of Alzheimer's disease” (Eur J Med Chem, 2021).
Each block holds one compound with its values, some of them ahead of it.

Tests used:
Acetylcholinesterase [1] = target: T1, Acetylcholinesterase (Homo sapiens, UniProt P22303); test: Inhibition of human AchE preincubated for 15 mins followed by substrate addition and measured for 5 mins using acetylthiocholine iodide as substrate by DTNB reagent based Ellman's method
[2] = target: Amyloid-beta precursor protein (Homo sapiens) (UniProt P05067); test: Inhibition of self-induced amyloid beta (1 to 42) (unknown origin) aggregation assessed as disaggregation at 25 uM incubated for 24 hrs in dark by ThT-based fluorimetric assay
[3] = Antioxidant activity assessed as trolox equivalent of ORAC radical scavenging activity by ORAC-FL assay; assay type: functional
Acetylcholinesterase [4] = target: T2, Acetylcholinesterase (Electrophorus electricus, UniProt O42275); test: Inhibition of electric eel AChE incubated for 15 mins using acetylthiocholine as substrate by Ellman's method
[5] = target: T3, Amine oxidase [flavin-containing] B (Homo sapiens, UniProt P27338); test: Inhibition of recombinant human MAO-B assessed as measuring amount of 4-hydroxyquinoline using kynuramine as substrate incubated for 30 mins by fluorescence spectrophotometry
T3 sequence (P27338 whole entry): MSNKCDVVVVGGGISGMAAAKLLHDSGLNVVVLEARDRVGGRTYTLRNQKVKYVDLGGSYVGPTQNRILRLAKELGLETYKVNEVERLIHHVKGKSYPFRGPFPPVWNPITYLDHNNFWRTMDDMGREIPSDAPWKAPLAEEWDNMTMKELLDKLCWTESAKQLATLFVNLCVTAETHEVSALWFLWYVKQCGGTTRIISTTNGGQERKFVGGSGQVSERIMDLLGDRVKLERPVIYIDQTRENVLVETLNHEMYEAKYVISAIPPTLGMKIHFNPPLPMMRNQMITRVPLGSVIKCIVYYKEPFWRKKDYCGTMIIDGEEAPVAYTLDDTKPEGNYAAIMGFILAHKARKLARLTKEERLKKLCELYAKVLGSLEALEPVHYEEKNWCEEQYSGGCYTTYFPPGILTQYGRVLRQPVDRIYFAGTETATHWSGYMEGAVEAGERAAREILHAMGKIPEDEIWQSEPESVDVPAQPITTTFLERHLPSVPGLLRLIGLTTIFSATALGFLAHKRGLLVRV

Cholinesterase [6] = target: T4, Cholinesterase (Equus caballus, UniProt P81908); test: Inhibition of equine BuChE incubated for 15 mins using butyrylthiocholine as substrate by Ellman's method
[7] = target: T5, Amine oxidase [flavin-containing] A (Homo sapiens, UniProt P21397); test: Inhibition of recombinant human MAO-A assessed as measuring amount of 4-hydroxyquinoline using kynuramine as substrate incubated for 30 mins by fluorescence spectrophotometry
T5 sequence (P21397 whole entry): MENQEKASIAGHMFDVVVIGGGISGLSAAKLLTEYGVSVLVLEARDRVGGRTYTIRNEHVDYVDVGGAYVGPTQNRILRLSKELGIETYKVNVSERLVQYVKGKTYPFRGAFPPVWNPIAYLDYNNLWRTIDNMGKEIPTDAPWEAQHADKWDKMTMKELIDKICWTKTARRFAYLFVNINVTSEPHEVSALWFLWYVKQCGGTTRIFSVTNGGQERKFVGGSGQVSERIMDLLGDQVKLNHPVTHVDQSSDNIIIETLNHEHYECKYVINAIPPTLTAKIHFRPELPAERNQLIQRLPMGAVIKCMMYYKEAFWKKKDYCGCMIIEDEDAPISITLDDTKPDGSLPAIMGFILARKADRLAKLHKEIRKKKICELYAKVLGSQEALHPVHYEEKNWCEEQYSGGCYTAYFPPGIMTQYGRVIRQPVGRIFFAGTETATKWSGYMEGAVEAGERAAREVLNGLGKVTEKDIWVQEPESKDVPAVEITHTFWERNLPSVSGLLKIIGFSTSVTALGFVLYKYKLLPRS

[8] = target: Amyloid-beta precursor protein (Homo sapiens) (UniProt P05067); test: Inhibition of self-induced amyloid beta (1 to 42) (unknown origin) aggregation at 25 uM incubated for 24 hrs in dark by ThT-based fluorimetric assay
[9] = target: T3, Amine oxidase [flavin-containing] B; test: Inhibition of human MAO-B using p-tyramine as substrate preincubated for 15 mins followed by susbtrate addition and measured after 15 mins by HRP and Amplex Red reagent based fluorometric analysis
[10] = target: T5, Amine oxidase [flavin-containing] A; test: Inhibition of human MAO-A using p-tyramine as substrate preincubated for 15 mins followed by susbtrate addition and measured after 15 mins by HRP and Amplex Red reagent based fluorometric analysis
[11] = target: T3, Amine oxidase [flavin-containing] B; test: Inhibition of recombinant human MAO-B using kynuramine as substrate preincubated for 15 mins followed by enzyme addition and further incubated for 20 mins by fluorescence microplate reader analysis
[12] = target: Amyloid-beta precursor protein (Homo sapiens) (UniProt P05067); test: Inhibition of self-induced amyloid beta (1 to 42) (unknown origin) aggregation at 20 uM incubated for 46 to 48 hrs in dark by ThT-based fluorimetric assay; details: time 46-48 hrs
PC-12 = test: Neuroprotective activity against amyloid beta (1 to 42)-induced cytotoxicity in rat PC-12 cells assessed as increase in cell viability at 50 uM preincubated for 2 hrs followed by amyloid beta (1 to 42) stimulation and measured after 24 hrs by MTT assay; assay type: functional; details: time 26 hrs
Cholinesterase [13] = target: T6, Cholinesterase (Homo sapiens, UniProt P06276)
Description: Inhibition of human BuchE preincubated for 6 mins followed by substrate addition using butyrylthiocholine iodide as substrate by DTNB reagent based Ellman method

Cholinesterase [14] = target: T4, Cholinesterase; test: Inhibition of equine serum BuchE preincubated for 6 mins followed by substrate addition using butyrylthiocholine iodide as substrate by DTNB reagent based Ellman method
[15] = Antioxidant activity assessed as trolox equivalent of ABTS radical cation scavenging activity measured after 6 mins by UV spectrophotometeric analysis; assay type: functional
Acetylcholinesterase [16] = target: T1, Acetylcholinesterase; test: Inhibition of human AchE preincubated for 6 mins followed by substrate addition and measured upto 3 mins using acetylthiocholine iodide as substrate by Ellman's method
Cholinesterase [17] = target: T6, Cholinesterase; test: Inhibition of human BuchE preincubated for 6 mins followed by substrate addition and measured upto 3 mins using acetylthiocholine iodide as substrate by Ellman's method
[18] = Antioxidant activity of compound assessed as trolox equivalent of AAPH radical scavenging activity preincubated for 15 mins followed by AAPH addition and measured every 1 min for 60 mins by ORAC-FL assay; assay type: functional; details: time 75.0 min
SH-SY5Y [19] = test: Neuroprotective activity against H2O2-induced cytotoxicity in human SH-SY5Y cells assessed as increase in cell viability at 10 uM preincubated for 24 hrs followed by H2O2 stimulation and measured after 24 hrs by MTS assay; assay type: functional; details: time 48 hrs
[20] = Antioxidant activity assessed as DPPH radical scavenging activity at 200 uM incubated for 2 hrs in dark by spectrophotometric analysis; assay type: functional
[21] = target: Amyloid-beta precursor protein (Homo sapiens) (UniProt P05067); test: Inhibition of self-induced amyloid beta (1 to 40) (unknown origin) aggregation at 20 uM incubated for 48 hrs by ThT-based fluorimetric assay
Acetylcholinesterase [22] = target: T2, Acetylcholinesterase; test: Inhibition of electric eel AchE preincubated for 30 mins followed by substrate addition using acetylthiocholine iodide as substrate by Ellman's method
Cholinesterase [23] = target: T6, Cholinesterase; test: Inhibition of human BuchE preincubated for 30 mins followed by substrate addition using butyrylthiocholine iodide as substrate by Ellman's method
SH-SY5Y [24] = test: Neuroprotective activity against amyloid beta (1 to 42)-induced cytotoxicity in human SH-SY5Y cells assessed as increase in cell viability at 10 uM incubated for 24 hrs by MTT assay; assay type: functional
Acetylcholinesterase [25] = target: T1, Acetylcholinesterase; test: Inhibition of human AchE preincubated for 20 mins followed by substrate addition using acetylthiocholine iodide as substrate by Ellman's method
[26] = target: Amyloid-beta precursor protein (Homo sapiens) (UniProt P05067); test: Inhibition of amyloid beta (1 to 42) (unknown origin) self aggregation assessed as reduction in fluorescence intensity at 50 uM incubated for 24 hrs by ThT-based fluorimetric assay
HepG2 [27] = test: Cytotoxicity against human HepG2 cells assessed reduction in cell viability at 1 uM by MTT assay; assay type: toxicity, cell-based; details: hepg2, 1 µM
[28] = Antioxidant activity of compound assessed as trolox equivalent of AAPH radical scavenging activity preincubated for 15 mins followed by AAPH addition and measured for 60 mins by ORAC-FL assay; assay type: functional; details: time 75.0 min
HepG2 [29] = test: Cytotoxicity against human HepG2 cells assessed reduction in cell viability at 1000 uM by MTT assay; assay type: toxicity, cell-based; details: hepg2, 1000 µM

T1 sequence (P22303 whole entry): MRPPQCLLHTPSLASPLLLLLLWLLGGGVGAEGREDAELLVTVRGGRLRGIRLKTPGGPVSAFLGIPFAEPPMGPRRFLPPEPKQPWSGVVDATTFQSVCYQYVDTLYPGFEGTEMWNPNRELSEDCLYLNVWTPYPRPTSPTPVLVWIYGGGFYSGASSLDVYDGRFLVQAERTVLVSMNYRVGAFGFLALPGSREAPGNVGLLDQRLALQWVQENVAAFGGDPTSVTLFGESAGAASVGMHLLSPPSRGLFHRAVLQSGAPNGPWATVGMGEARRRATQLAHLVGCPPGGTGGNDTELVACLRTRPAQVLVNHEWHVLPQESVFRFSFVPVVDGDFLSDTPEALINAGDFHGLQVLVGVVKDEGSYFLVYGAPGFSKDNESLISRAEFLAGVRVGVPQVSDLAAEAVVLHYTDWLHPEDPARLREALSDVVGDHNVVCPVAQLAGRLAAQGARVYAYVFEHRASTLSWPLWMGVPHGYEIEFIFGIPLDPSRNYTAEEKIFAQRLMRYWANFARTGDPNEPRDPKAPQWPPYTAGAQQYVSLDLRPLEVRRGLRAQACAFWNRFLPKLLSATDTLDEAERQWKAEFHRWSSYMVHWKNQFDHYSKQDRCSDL
T6 sequence (P06276 whole entry): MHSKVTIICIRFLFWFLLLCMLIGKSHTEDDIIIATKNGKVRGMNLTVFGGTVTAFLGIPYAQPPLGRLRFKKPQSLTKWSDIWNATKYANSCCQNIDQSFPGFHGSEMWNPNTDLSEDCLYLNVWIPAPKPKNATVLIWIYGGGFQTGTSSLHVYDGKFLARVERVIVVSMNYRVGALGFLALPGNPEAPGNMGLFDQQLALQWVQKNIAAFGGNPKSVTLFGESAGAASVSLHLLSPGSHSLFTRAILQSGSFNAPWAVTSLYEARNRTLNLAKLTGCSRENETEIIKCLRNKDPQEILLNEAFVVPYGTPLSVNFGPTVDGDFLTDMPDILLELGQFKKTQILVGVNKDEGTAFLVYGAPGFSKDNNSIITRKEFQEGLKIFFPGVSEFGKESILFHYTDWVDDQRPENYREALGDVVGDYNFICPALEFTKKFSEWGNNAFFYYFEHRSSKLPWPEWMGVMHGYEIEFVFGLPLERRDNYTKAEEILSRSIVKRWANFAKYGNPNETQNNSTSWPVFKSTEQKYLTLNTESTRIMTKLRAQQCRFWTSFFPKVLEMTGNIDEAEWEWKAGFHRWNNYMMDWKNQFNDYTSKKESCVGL
Amyloid-beta precursor protein (Homo sapiens), sequence (P05067 whole entry): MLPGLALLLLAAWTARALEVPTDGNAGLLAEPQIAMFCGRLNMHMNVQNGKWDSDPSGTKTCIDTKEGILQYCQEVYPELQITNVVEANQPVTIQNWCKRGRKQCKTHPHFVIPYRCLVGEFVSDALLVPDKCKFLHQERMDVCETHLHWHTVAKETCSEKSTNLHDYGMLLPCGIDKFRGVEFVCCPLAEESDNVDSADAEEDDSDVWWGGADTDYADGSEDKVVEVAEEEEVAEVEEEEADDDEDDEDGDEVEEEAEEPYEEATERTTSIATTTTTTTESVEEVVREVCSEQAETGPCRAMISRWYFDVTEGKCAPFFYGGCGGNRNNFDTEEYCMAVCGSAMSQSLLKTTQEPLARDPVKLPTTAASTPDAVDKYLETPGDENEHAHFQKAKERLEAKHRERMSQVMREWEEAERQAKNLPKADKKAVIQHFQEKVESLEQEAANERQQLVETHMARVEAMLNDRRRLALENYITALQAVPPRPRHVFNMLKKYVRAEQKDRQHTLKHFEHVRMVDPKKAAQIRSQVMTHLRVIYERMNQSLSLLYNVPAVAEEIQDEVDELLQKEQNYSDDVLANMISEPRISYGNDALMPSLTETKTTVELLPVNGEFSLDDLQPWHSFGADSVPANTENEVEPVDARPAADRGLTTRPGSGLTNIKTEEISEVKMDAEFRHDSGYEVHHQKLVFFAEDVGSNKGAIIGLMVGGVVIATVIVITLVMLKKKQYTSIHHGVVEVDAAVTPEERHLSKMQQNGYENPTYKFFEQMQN
T2 sequence (O42275 whole entry): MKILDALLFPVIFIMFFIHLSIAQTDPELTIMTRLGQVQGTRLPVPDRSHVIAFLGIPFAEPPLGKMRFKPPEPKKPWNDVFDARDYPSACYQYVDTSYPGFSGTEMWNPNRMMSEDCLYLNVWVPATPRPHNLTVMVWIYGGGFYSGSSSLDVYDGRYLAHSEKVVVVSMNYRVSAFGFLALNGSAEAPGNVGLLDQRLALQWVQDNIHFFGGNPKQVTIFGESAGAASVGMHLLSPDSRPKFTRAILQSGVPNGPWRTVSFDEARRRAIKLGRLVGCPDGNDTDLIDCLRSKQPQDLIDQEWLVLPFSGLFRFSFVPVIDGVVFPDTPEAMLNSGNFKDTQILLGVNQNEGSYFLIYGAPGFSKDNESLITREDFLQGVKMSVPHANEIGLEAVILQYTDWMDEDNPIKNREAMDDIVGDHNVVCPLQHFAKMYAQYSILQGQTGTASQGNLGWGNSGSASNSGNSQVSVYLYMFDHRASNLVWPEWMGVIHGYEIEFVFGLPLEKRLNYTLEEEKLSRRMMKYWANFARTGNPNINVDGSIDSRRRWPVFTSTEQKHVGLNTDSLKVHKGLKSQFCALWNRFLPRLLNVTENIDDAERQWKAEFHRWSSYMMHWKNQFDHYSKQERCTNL
T4 sequence (P81908 whole entry): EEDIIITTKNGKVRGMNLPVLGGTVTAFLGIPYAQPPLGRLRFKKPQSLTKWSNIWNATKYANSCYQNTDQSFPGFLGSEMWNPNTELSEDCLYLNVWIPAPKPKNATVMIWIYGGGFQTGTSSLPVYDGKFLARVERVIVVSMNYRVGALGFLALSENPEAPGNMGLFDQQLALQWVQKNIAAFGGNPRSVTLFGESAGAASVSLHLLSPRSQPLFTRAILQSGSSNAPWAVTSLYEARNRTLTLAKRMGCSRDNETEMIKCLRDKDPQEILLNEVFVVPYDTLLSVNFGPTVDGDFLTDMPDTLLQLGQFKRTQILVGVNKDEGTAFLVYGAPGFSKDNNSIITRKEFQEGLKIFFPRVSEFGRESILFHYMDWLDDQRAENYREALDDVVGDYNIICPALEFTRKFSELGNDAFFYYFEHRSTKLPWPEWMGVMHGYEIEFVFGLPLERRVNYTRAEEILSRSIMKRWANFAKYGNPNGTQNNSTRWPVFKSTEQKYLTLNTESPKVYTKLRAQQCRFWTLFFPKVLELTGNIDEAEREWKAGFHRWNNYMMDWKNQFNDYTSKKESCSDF

SMILES: C[N+](C)(C)CCNC(=O)/C=C/c1ccc(O)c(O)c1
IC50 (Acetylcholinesterase [1]): 7300 nM

SMILES: COc1cc(/C=C/C(=O)N2CCc3ccccc3C2)ccc1OCCCCN(CNCc1ccccc1)CNCc1ccccc1
inhibition [2]: 43.8%
Activity [3]: 0.52 equiv
IC50 (Acetylcholinesterase [4]): 12100 nM
IC50 [5]: 8600 nM
IC50 (Cholinesterase [6]): 8930 nM
IC50 [7]: 6300 nM
inhibition [8]: 59.3%

Ki [9]: 110 nM
Ki [10]: 1950 nM
SMILES: COc1ccc(/C=C/C(=O)NCCc2ccccc2)cc1O

IC50 [11]: 13 nM
SMILES: O=C(/C=C/c1ccc(O)cc1)OCCc1ccccc1

SMILES: COc1ccc(/C=C/C(=O)Nc2cc[n+](Cc3ccc(F)cc3)cc2)cc1OC.[Br-]
inhibition [12]: 65.6%
Activity (PC-12): 66.6%
IC50 (Cholinesterase [13]): 4.4 nM
IC50 (Cholinesterase [14]): 2.6 nM

SMILES: COc1cc(/C=C/C(=O)OCCCCCN(C)Cc2cccc(OC(=O)N(C)C)c2)ccc1O
Activity [15]: 1.26 µM
IC50 (Acetylcholinesterase [16]): 19.7 nM
IC50 (Cholinesterase [17]): 0.59 nM

inhibition [21]: 62.7%
SMILES: O=C(NCc1ccccc1)C(c1cc2ccccc2nc1Cl)N(Cc1ccccc1)C(=O)/C=C/c1ccc(O)c(O)c1 (stereo not given)
Activity [18]: 6.86 equiv
Activity (SH-SY5Y [19]): 21.87%
Activity [20]: > 77%

SMILES: COc1cc(/C=C/C(=O)O[C@H]2C[C@H]3O[C@H](OC(=O)Nc4ccccc4)C[C@H]3O2)ccc1O
IC50 (Acetylcholinesterase [22]): 27100 nM
IC50 (Cholinesterase [23]): 29200 nM

SMILES: COc1ccc2nc3c(c(NCCCCCCCCN(CC(=O)Nc4ccc5ccccc5c4)C(=O)/C=C/c4ccc(O)c(OC)c4)c2c1)CCCC3
Activity (SH-SY5Y [24]): 95.1%
IC50 (Acetylcholinesterase [25]): 22.2 nM
inhibition [26]: 65.6%
Activity (HepG2 [27]): 98.8%
Activity [28]: 4.29 equiv
Activity (HepG2 [29]): 59.4%
